How the values were obtained:
[1] = maximum tolerated dose of clofarabine; assay type: in vivo; settings: species and study not stated
Procedure: It may be necessary to use dosages of the active ingredient outside the ranges disclosed herein in some cases, as will be apparent to those of ordinary skill in the art, but the dosage should not fall below 1.0 mg/kg/day. The maximum tolerated doses of clofarabine is approximately 80 mg/kg per day. Furthermore, it is noted that the clinician or treating physician will know how and when to interrupt, adjust, or terminate therapy in conjunction with individual patient response.

[2] = degradation of the drug during dissolution, lyophilization and drying of the parenteral formulation; assay type: physicochemical; settings: dissolution in tertiary butanol/Water for Injection at 5° C., lyophilization at −16° C. for 48 hours, drying at 15° C. under high vacuum for 48 hours, protected from light
Procedure: Clofarabine, 9.86 g, is wetted/partially dissolved with 600 mL of a 9:1 mixture of tertiary butanol and Water for Injection USP which is pre-cooled to 5° C. Once the drug powder is completely wetted, dissolution is completed by the addition of 600 mL of a 1:9 mixture of tertiary butanol and Water for Injection and 766 mL of a 1:1 mixture of tertiary butanol and Water for Injection which likewise is pre-cooled to 5° C. thereby making the final solution a 1:1 mixture. The dissolution is carried out under protection from light.
The solution formed above is promptly lyophilized in a Virtis INOTOP lyophilizer at −16° C. under light protectant conditions over a period of 48 hours. The resultant lyophilized product (lyophile) is then further dried at 15° C. under high vacuum for 48 hours. […] The lyophile is packaged under sterile conditions into 30 mL vials, each containing 50 mg of drug, 50 mg of mannitol and sodium hydroxide to adjust the pH to 7.7 and standard excess to allow for vial/needle/syringe loss.

Q: Which results are given for `Nc1nc(Cl)nc2c1ncn2[C@@H]1O[C@H](CO)[C@@H](O)[C@@H]1F` [Clofarabine, 2 Chloro 9 (2 deoxy 2 fluoro β D arabinofuranosyl)adenine]?
A: maximum tolerated dose [1]: approximately 80 mg/kg per day; degradation of the drug [2]: No detectable degradation

Source: patent US7772206B2, “Methods and compositions for the treatment of autoimmune disorders using clofarabine” (Genzyme Corporation, priority 2002, dated 2010)
